Data on one substance can be found in US6846804B2 (priority 2000, dated 2005).

The subject of one assay is B. cereus T spores. The assay is classed as cell-based, Bacillus cereus T.
In a further assay the test system is spores of Bacillus. The following applies: cited from earlier work.

Consider Sublancin, for which the “halo (inhibition of spore germination/outgrowth)” value in the assay on B. cereus T spores was “clear halo”. The “inhibition of outgrowth of spores” value in the assay on spores of Bacillus is on record as “highly active”.
